Values of other authors, collected in patent US9585896B2, “Compositions comprising omega-3 fatty acids and vitamin D for psoriasis, and methods and uses thereof” (PRONOVA BIOPHARMA NORGE AS, priority 2012, dated 2017).

Test system: patients with psoriasis
Details: over a 12-week period, versus high-dose etanercept

## Ustekinumab: FDA-approved IL-12/IL-23 blocker targeting the common domain p40
  efficacy in patients with psoriasis: higher efficacy than high-dose etanercept
